Patent publication US9012470B2 (Dart NeuroScience (Cayman) Ltd., priority 2010, dated 2015)

Experiments:
GABAA receptors = assay: Electrophysiology assay, two-electrode voltage clamp in Xenopus oocytes expressing GABAA receptors; assay type: cell-based; conditions: GABA EC10, screening concentration of 10 μM, subunit combination not stated
Experimental: mRNA was prepared from lyophilized plasmid pellets containing cDNA inserts encoding the specific GABAA receptor subunit. cDNAs encoding the α2, α3, and γ3 subunits were subcloned into pBluescript, SK^−. cDNAs encoding the α1 and α5 subunits were subcloned into prC while cDNA encoding the β2 subunit was subcloned into pcDNA1. The cDNA construct encoding the γ2s subunit is in the pGH19 expression construct. Overnight cultures of transformed DH5a bacterial cells were performed to grow sufficient quantities for maxiprep isolation of the plasmid cDNA. The resulting plasmid cDNA was linearized by digestion with an appropriate restriction enzyme that cleaves distal to the cDNA insert (XbaI for α1,2, β2, and γ3 or NotI for α3,5 and γ2, respectively). Following digestion, plasmid cDNA was treated with proteinase K and extracted with phenol/chloroform/isoamyl alcohol, followed by ethanol precipitation. cDNA quality was assessed by agarose-gel electrophoresis (1.5% agarose gel). Samples were stored at −20° C. until use. In vitro transcription was performed with T7 RNA polymerase. mRNA was then stored at −80° C. until use. Plasmids were linearized with appropriate restriction enzymes before in vitro transcription using the Message Machine kit (Ambion, Austin, Tex.).
GABAA Receptor Expression in Xenopus oocytes.
GABAA receptor expression in Xenopus oocytes: Following 45 min of 0.15% Tricaine anesthesia, an ovarian section containing the follicular oocytes was removed from the frog through a lateral abdominal incision. Oocytes were immediately placed in a calcium-free solution (NaCl 96 mM, MgCl2 1 mM, KCl 2 mM, Hepes 50 mM, pyruvate 2.5 mM, gentamycin 100 μg/mL, penicillin-streptomycin 50 U/mL, pH 7.4). Following 1.5-2 hour incubation in 0.2% collagenase (type II, Sigma Chemical Co., St. Louis, Mo.) at room temperature, individual Dumont stage V and VI oocytes were transferred to an incubator and maintained overnight in Barth's solution (NaCl 84 mM, NaHCO3 2.4 mM, MgSO4 0.82 mM, KCl 1 mM, Ca(NO3)2 0.33 mM, CaCl2 0.41 mM, Tris/HCl 7.5 mM, pyruvate 2.5 mM, gentamycin 50 μg/mL, penicillin-streptomycin, 100 units/mL, pH 7.4) at 18-20° C. and used for experiments 1-5 days post-injection. Oocytes were injected solution using an electronic microinjector (Drummond, Broomall, Pa.) with 50 nL of RNA containing 0.3-0.5 ng of each subunit RNA in a 1:1:1 ratio. The injected oocytes were used for experiments after 1-5 days of incubation in Barth's solution at 18-20° C.
Measurements of ion currents from oocytes expressing GABAA receptors were performed using a Warner two-electrode voltage-clamp amplifier (Warner Instruments, Inc., Foster City, Calif.) (Park-Chung, M., et al. (1999) Brain Res. 830: 72-87 incorporated herein in its entirety). Microelectrodes were fabricated from borosilicate glass capillaries with a programmed pipette puller (Sutter Instrument Co., Calif.). Microelectrode resistance was 1-3 MΩ when filled with 3 M KCl. The oocyte recording chamber was continuously perfused with Ringer solution. Oocytes were clamped at a holding potential of −70 mV during data acquisition. The membrane current was filtered at 10 Hz and sampled at 100 Hz. Compounds were applied by a gravity-driven external perfusion system. The working volume of the recording chamber was 30 μL and the rate of the perfusion was approximately 50 μL/sec. Compound application was 10-20 sec followed by a 90 sec wash. Data acquisition and external perfusion was computer controlled by custom-developed software. All experiments were performed at room temperature (22-24° C.). Dose-response data from each oocyte were fitted to the Hill equation by non-linear regression using the equation: IGABA=Emax/(1+(EC50/c)^n^H)
Emax is the maximum response, EC50 is the concentration producing 50% of the maximal response, nH is the Hill coefficient and c is the concentration of agonist. […]

[1] = tested on: benzodiazepine site of GABAA; assay: Binding assay, benzodiazepine site of GABAA (binding assay 1: rat brain, (3H)-flunitrazepam; binding assay 2: bovine hippocampal membranes, [3H]-RY80); conditions: radioligand binding; for % Inhibition at 0.1 μM: 0.1 μM test compound; for % Inhibition at 10 μM: 10 μM test compound
Experimental: The ability of a compound disclosed herein to act as ligand to the benzodiazepine site of GABAA can be determined using pharmacological models which are well known in the art using the following assay.
Binding assay 1: Whole brain (except cerebellum) of male Wistar derived rats weighing 175±25 g were used to prepare GABAA central benzodiazepine receptor in Na—K phosphate buffer pH 7.4. A 5 mg aliquot was incubated with 1 nM (^3H)-flunitrazepam for 60 minutes at 25° C. Experiments were performed in the presence or absence of 30 μM of GABA. Non-specific binding was estimated in the presence of 10 μM of diazepam. Membranes were filtered and washed, the filters were then counted to determine (^3H)-flunitrazepam specifically bound. Test compounds were tested in duplicate according to the required concentrations (Damm, H. W., et al. (1978) Res. Comm. Chem. Pathol. Pharmacol. 22: 597-560 incorporated herein in its entirety; Speth, R. C., et al. (1979) Life Sci. 24: 351-357 incorporated herein in its entirety).
Receptor Source: Bovine hippocampal membranes
Radioligand: [3H]-RY80 (40-80 Ci/mmol)
Final ligand concentration—[0.8 nM]
Non-specific Determinant: L-655,708—[0.5 μM]
Binding assay 2 followed procedures based on Li and Szabo (Li M., Szabo A., Rosenberg H. Evaluation of native GABAA receptors containing an α5 subunit. Eur. J. Pharmacol. 413: 63-72 (2001)). Incubation Conditions: Reactions are carried out in 50 mM Tris-Citrate (pH 7.8) containing 200 mM NaCl at 0-4° C. for 60 minutes. The reaction is terminated by rapid vacuum filtration onto glass fiber filters. Radioactivity trapped onto the filters is determined and compared to control values in order to ascertain any interactions of test compound with the benzodiazepine (central) binding site.

Row | Structure (SMILES) | EP Modulation (GABAA receptors) | % Inhibition at 0.1 μM [1] | % Inhibition at 10 μM [1]
1 | CCNC(=O)n1cc2[nH]cc3c(=O)n(-c4ccc(F)cc4)nc-3c2c1 [Compound 13f, N-Ethyl-2-(4-fluorophenyl)-3-oxo-2,3-dihydropyrazolo[3,4-d]pyrrolo[3,4-b]pyridine-7(5H)-carboxamide] | D (D indicates negative modulation >20%) | A (A indicates % inhibition >80%) | A (A indicates % inhibition >80%)
2 | O=C(NCC(F)(F)F)n1ncc2c3nn(-c4ccccc4)c(=O)c-3c[nH]c21 [Compound 7b, 3-oxo-2-phenyl-N-(2,2,2-trifluoroethyl)-2,3-dihydrodipyrazolo[3,4-b:3′,4′-d]pyridine-6(5H)-carboxamide] | D (D indicates negative modulation >20%) | B (B indicates % inhibition <80% and >20%) | A (A indicates % inhibition >80%)
3 | CCNC(=O)n1nc2[nH]cc3c(=O)n(-c4ccccc4)nc-3c2c1C [Compound 6av, N-ethyl-8-methyl-3-oxo-2-phenyl-2,3-dihydrodipyrazolo[3,4-b:3′,4′-d]pyridine-7(5H)-carboxamide] | E (E indicates negative modulation <20%) | B (B indicates % inhibition <80% and >20%) | A (A indicates % inhibition >80%)
4 | O=C(NC1CC1)n1ncc2c3nn(-c4ccccc4)c(=O)c-3c[nH]c21 [Compound 6j, N-cyclopropyl-3-oxo-2-phenyl-2,3-dihydrodipyrazolo[3,4-b:3′,4′-d]pyridine-6(5H)-carboxamide] | E (E indicates negative modulation <20%) | C (C indicates % inhibition <20%) | A (A indicates % inhibition >80%)
5 | CCNC(=O)n1ncc2c3nn(-c4ccc(Cl)cn4)c(=O)c-3c[nH]c21 [Compound 6ay, 2-(5-chloropyridin-2-yl)-N-ethyl-3-oxo-2,3-dihydrodipyrazolo[3,4-b:3′,4′-d]pyridine-6(5H)-carboxamide] | D (D indicates negative modulation >20%) | – | A (A indicates % inhibition >80%)
6 | CC(C)NC(=O)n1ncc2c3nn(-c4ccccn4)c(=O)c-3c[nH]c21 [Compound 6n, N-isopropyl-3-oxo-2-(pyridin-2-yl)-2,3-dihydrodipyrazolo[3,4-b:3′,4′-d]pyridine-6(5H)-carboxamide] | E (E indicates negative modulation <20%) | C (C indicates % inhibition <20%) | C (C indicates % inhibition <20%)
7 | CCCCNC(=O)n1cc2[nH]cc3c(=O)n(-c4ccccc4F)nc-3c2c1 [Compound 13e, N-butyl-2-(2-fluorophenyl)-3-oxo-2,3-dihydropyrazolo[3,4-d]pyrrolo[3,4-b]pyridine-7(5H)-carboxamide] | E (E indicates negative modulation <20%) | B (B indicates % inhibition <80% and >20%) | A (A indicates % inhibition >80%)
8 | CN(C)CCNC(=O)n1ncc2c3nn(-c4ccccc4)c(=O)c-3c[nH]c21 [Compound 7a, N-(2-(dimethylamino)ethyl)-3-oxo-2-phenyl-2,3-dihydrodipyrazolo[3,4-b:3′,4′-d]pyridine-6(5H)-carboxamide] | E (E indicates negative modulation <20%) | C (C indicates % inhibition <20%) | B (B indicates % inhibition <80% and >20%)
9 | CCNC(=O)n1ncc2c3nn(-c4ccc(C(F)(F)F)cc4)c(=O)c-3c[nH]c21 [Compound 6ae, N-ethyl-3-oxo-2-(4-(trifluoromethyl)phenyl)-2,3-dihydrodipyrazolo[3,4-b:3′,4′-d]pyridine-6(5H)-carboxamide] | E (E indicates negative modulation <20%) | – | A (A indicates % inhibition >80%)
10 | CCNC(=O)n1ncc2c3nn(-c4cccc(C(F)(F)F)c4)c(=O)c-3c[nH]c21 [Compound 6ai, N-ethyl-3-oxo-2-(3-(trifluoromethyl)phenyl)-2,3-dihydrodipyrazolo[3,4-b:3′,4′-d]pyridine-6(5H)-carboxamide] | 0% | C (C indicates % inhibition <20%) | A (A indicates % inhibition >80%)
11 | CCNC(=O)n1cc2[nH]cc3c(=O)n(-c4ccccc4F)nc-3c2c1 [Compound 13d, N-Ethyl-2-(2-fluorophenyl)-3-oxo-2,3-dihydropyrazolo[3,4-d]pyrrolo[3,4-b]pyridine-7(5H)-carboxamide] | D (D indicates negative modulation >20%) | B (B indicates % inhibition <80% and >20%) | A (A indicates % inhibition >80%)
12 | CCNC(=O)n1ncc2c3nn(-c4ccccn4)c(=O)c-3c[nH]c21 [Compound 6m, N-ethyl-3-oxo-2-(pyridin-2-yl)-2,3-dihydrodipyrazolo[3,4-b:3′,4′-d]pyridine-6(5H)-carboxamide] | D (D indicates negative modulation >20%) | C (C indicates % inhibition <20%) | A (A indicates % inhibition >80%)
13 | O=C(Nc1ccccc1)n1ncc2c3nn(-c4ccccc4)c(=O)c-3c[nH]c21 [Compound 6h, 3-oxo-N,2-diphenyl-2,3-dihydrodipyrazolo[3,4-b:3′,4′-d]pyridine-6(5H)-carboxamide] | D (D indicates negative modulation >20%) | C (C indicates % inhibition <20%) | B (B indicates % inhibition <80% and >20%)
14 | CCNC(=O)n1ncc2c3nn(-c4cccc(Cl)c4)c(=O)c-3c[nH]c21 [Compound 6ad, 2-(3-chlorophenyl)-N-ethyl-3-oxo-2,3-dihydrodipyrazolo[3,4-b:3′,4′-d]pyridine-6(5H)-carboxamide] | E (E indicates negative modulation <20%) | – | A (A indicates % inhibition >80%)
15 | CCNC(=O)n1nc(C)c2c3nn(-c4ccccc4)c(=O)c-3c[nH]c21 [Compound 6l, N-ethyl-8-methyl-3-oxo-2-phenyl-2,3-dihydrodipyrazolo[3,4-b:3′,4′-d]pyridine-6(5H)-carboxamide] | D (D indicates negative modulation >20%) | A (A indicates % inhibition >80%) | A (A indicates % inhibition >80%)
